What all share (type): cell-based
One assay has as its target T1, adenosine A1 receptor (Homo sapiens, UniProt P30542).
T1 construct: expressed in transfected cells; host or cells: CHO (Chinese Hamster Ovary)
T1 sequence (P30542 1-326): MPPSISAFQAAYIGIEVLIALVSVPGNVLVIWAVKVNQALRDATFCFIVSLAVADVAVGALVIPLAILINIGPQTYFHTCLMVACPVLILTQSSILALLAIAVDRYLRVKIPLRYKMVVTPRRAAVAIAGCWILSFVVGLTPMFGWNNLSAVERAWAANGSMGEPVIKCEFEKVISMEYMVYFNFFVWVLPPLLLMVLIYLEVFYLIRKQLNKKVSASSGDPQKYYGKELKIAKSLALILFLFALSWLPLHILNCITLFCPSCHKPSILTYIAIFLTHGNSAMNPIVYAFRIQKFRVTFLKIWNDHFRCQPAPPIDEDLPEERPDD
The experiment in a line: Indirect determination of adenosine agonism by way of gene expression (luciferase), A1 cells. Conditions: stably transfected CHO cells; 1 μM forskolin; 50% inhibition of luciferase response. The text has this:
(§1) B-1. Indirect Determination of the Adenosine Agonism by Way of Gene Expression
(§2) Cells of the CHO (Chinese Hamster Ovary) permanent line are transfected stably with the cDNA for the adenosine receptor subtypes A1, A2a and A2b. The adenosine A1 receptors are coupled to the adenylate cyclase by way of Gi proteins, while the adenosine A2a and A2b receptors are coupled by way of Gs proteins. In correspondence with this, the formation of cAMP in the cell is inhibited or stimulated, respectively. After that, expression of the luciferase is modulated by way of a cAMP-dependent promoter. The luciferase test is optimized, with the aim of high sensitivity and reproducibility, low variance and good suitability for implementation on a robot system, by varying several test parameters, such as cell density, duration of the growth phase and the test incubation, forskolin concentration and medium composition. The following test protocol is used for pharmacologically characterizing cells and for the robot-assisted substance screening:
(§3) The stock cultures are grown, at 37° C. and under 5% CO2, in DMEM/F12 medium containing 10% FCS (fetal calf serum) and in each case split 1:10 after 2-3 days. Test cultures are seeded in 384-well plates with 2000 cells per well and grown at 37° C. for approx. 48 hours. The medium is then replaced with a physiological sodium chloride solution (130 mM sodium chloride, 5 mM potassium chloride, 2 mM calcium chloride, 20 mM HEPES, 1 mM magnesium chloride hexahydrate, 5 mM sodium bicarbonate, pH 7.4). The substances to be tested, which are dissolved in DMSO, are pipetted into the test cultures (maximum final concentration of DMSO in the test mixture: 0.5%) in a dilution series of from 5×10^−11 M to 3×10^−6 M (final concentration). 10 minutes later, forskolin is added to the A1 cells and all the cultures are subsequently incubated at 37° C. for four hours. After that, 35 μl of a solution which is composed of 50% lysis reagent (30 mM disodium hydrogenphosphate, 10% glycerol, 3% TritonX100, 25 mM TrisHCl, 2 mM dithiotreitol (DTT), pH 7.8) and 50% luciferase substrate solution (2.5 mM ATP, 0.5 mM luciferin, 0.1 mM coenzyme A, 10 mM tricine, 1.35 mM magnesium sulfate, 15 mM DTT, pH 7.8) are added to the test cultures, which are shaken for approx. 1 minute and the luciferase activity is measured using a camera system. The EC50 values are determined, i.e., the concentrations at which 50% of the luciferase response is inhibited in the case of the A1 cell, and, respectively, 50% of the maximum stimulation with the corresponding substance is achieved in the case of the A2b and A2a cells. […] Pharmacol., 357, 1-9 (1998)).

The target of the next assay is T2, adenosine A2a receptor (Homo sapiens, UniProt P29274).
T2 construct: expressed in transfected cells; host or cells: CHO (Chinese Hamster Ovary)
Briefly: Indirect determination of adenosine agonism by way of gene expression (luciferase), A2a cells. Conditions: stably transfected CHO cells; 50% of maximum stimulation of luciferase.
From the text: as §1, §2, §3

The target in a further assay is T3, adenosine A2b receptor (Homo sapiens, UniProt P29275).
T3 construct: expressed in transfected cells; host or cells: CHO (Chinese Hamster Ovary)
T3 sequence (P29275 1-332): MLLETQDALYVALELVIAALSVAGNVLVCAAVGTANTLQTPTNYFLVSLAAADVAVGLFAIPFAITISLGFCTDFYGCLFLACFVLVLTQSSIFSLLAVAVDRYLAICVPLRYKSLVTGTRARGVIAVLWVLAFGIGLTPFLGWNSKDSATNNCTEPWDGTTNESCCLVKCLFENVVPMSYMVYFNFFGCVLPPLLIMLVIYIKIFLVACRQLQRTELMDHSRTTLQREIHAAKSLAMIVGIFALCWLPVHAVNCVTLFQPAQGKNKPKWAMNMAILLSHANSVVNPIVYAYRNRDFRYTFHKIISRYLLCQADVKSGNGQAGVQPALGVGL
Briefly: Indirect determination of adenosine agonism by way of gene expression (luciferase), A2b cells. Conditions: stably transfected CHO cells; 50% of maximum stimulation of luciferase.
From the text: as §1, §2, §3

What is called EC50 is the concentration that produces a half-maximal response. Higher therefore signals weaker potency.

T2 sequence (P29274 whole entry): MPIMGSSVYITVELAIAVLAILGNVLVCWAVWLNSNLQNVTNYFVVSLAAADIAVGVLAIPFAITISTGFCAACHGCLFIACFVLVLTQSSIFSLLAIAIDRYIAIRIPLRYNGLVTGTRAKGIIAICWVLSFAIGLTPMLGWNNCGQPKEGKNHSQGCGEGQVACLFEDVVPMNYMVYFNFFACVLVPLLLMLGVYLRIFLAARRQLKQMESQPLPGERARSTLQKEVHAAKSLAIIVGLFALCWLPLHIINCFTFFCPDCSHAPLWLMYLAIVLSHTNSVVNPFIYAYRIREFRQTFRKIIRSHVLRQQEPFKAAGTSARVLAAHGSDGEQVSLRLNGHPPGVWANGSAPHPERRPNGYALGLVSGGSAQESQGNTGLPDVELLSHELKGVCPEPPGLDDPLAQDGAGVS

Regarding `N#Cc1c(N)nc(SCc2cccc(C(N)=O)c2)c(C#N)c1-c1cccs1` [Example 37, 3-({[6-Amino-3,5-dicyano-4-(2-thienyl)pyridin-2-yl]thio}methyl)benzamide], the EC50 at adenosine A1 receptor is 0.05 nM; at adenosine A2a receptor it was 88 nM; on adenosine A2b receptor, 28 nM.
`N#Cc1c(SCc2csc(-c3ccc(Cl)cc3)n2)nc(N2CC(O)C2)c(C#N)c1-c1cncs1` [Example 16, 2-([2-(4-Chlorophenyl)-1,3-thiazol-4-yl]methylsulfanyl)-6-(3-hydroxyazetidin-1-yl)-4-(1,3-thiazol-5-yl)pyridine-3,5-dicarbonitrile]: the figures for the EC50 on adenosine A1 receptor, on adenosine A2a receptor and on adenosine A2b receptor were 0.4 nM, 3000 nM and 3000 nM, respectively.
In the case of `N#Cc1c(N)nc(SCc2csc(-c3ccc(Cl)cc3)n2)c(C#N)c1-c1cscn1` [Example 1, 2-Amino-6-([2-(4-chlorophenyl)-1,3-thiazol-4-yl]methylsulfanyl)-4-(1,3-thiazol-4-yl)pyridine-3,5-dicarbonitrile], the EC50 on adenosine A1 receptor stood at 0.5 nM; on adenosine A2a receptor it was 3000 nM; on adenosine A2b receptor, 1570 nM.
On to `N#Cc1c(SCc2csc(-c3ccc(Cl)cc3)n2)nc(N2CC(O)C2)c(C#N)c1-c1cc[nH]n1` [Example 27], for which the figures for the EC50 on adenosine A1 receptor, on adenosine A2a receptor and at adenosine A2b receptor were 1.1 nM, 6500 nM and 6500 nM, respectively.
On to `N#Cc1c(N)nc(SCc2coc(-c3ccc(Cl)cc3)n2)c(C#N)c1-c1cn[nH]c1` [Example 12], for which the EC50 stood at 2.4 nM at adenosine A1 receptor, 3000 nM at adenosine A2a receptor and 3000 nM on adenosine A2b receptor.
With `N#Cc1c(N)nc(SCc2coc(-c3ccc(Cl)cc3)n2)c(C#N)c1-c1cncs1` [Example 4, 2-Amino-6-([2-(4-chlorophenyl)-1,3-oxazol-4-yl]methylsulfanyl)-4-(1,3-thiazol-5-yl)pyridine-3,5-dicarbonitrile], the EC50 was 0.9 nM on adenosine A1 receptor, 3000 nM on adenosine A2a receptor and 3000 nM at adenosine A2b receptor.
Turning to `N#Cc1c(SCc2coc(-c3ccc(Cl)cc3)n2)nc(N2CC(O)C2)c(C#N)c1-c1nccs1` [Example 20], the EC50 at adenosine A1 receptor was 0.5 nM; at adenosine A2a receptor it was 3000 nM; at adenosine A2b receptor, 1800 nM.
Consider `N#Cc1c(SCc2csc(-c3ccc(Cl)cc3)n2)nc(N2CC(O)C2)c(C#N)c1-c1nccs1` [Example 22], for which the EC50 on adenosine A1 receptor was determined as 0.6 nM; at adenosine A2a receptor it was 2470 nM; at adenosine A2b receptor, 1280 nM.
As to `CC(O)Cn1ccc(-c2c(C#N)c(N)nc(SCc3csc(-c4ccc(Cl)cc4)n3)c2C#N)n1` (stereo not drawn) [Example 30, 2-Amino-6-([2-(4-chlorophenyl)-1,3-thiazol-4-yl]methylsulfanyl)-4-[1-(2-hydroxypropyl)-1H-pyrazol-3-yl]pyridine-3,5-dicarbonitrile], the EC50 on adenosine A1 receptor stood at 1.9 nM; at adenosine A2a receptor, 2000 nM; at adenosine A2b receptor it was 1410 nM.
Taken in the same sequence, the figures for `N#Cc1c(N)nc(SCc2csc(-c3ccc(Cl)cc3)n2)c(C#N)c1-c1cccs1` [Example 32, 2-Amino-6-({[2-(4-chlorophenyl)-1,3-thiazol-4-yl]methyl}sulfanyl)-4-thiophen-2-ylpyridine-3,5-dicarbonitrile] were 0.3 nM, 184 nM and 34 nM.
Take `N#Cc1c(SCc2csc(-c3ccc(Cl)cc3)n2)nc(N2CC[C@@H](O)C2)c(C#N)c1-c1cncs1` [Example 47, 2-({[2-(4-Chlorophenyl)-1,3-thiazol-4-yl]methyl}sulfanyl)-6-[(3R)-3-hydroxypyrrolidin-1-yl]-4-(1,3-thiazol-5-yl)pyridine-3,5-dicarbonitrile]: the EC50 was determined as 0.5 nM on adenosine A1 receptor, 3000 nM at adenosine A2a receptor and 3000 nM on adenosine A2b receptor.
`N#Cc1c(NC[C@H](O)CO)nc(SCc2csc(-c3ccc(Cl)cc3)n2)c(C#N)c1-c1nccs1` [Example 21]: the EC50 at adenosine A1 receptor was 0.5 nM; at adenosine A2a receptor, 378 nM; on adenosine A2b receptor it was 3000 nM.
`N#Cc1c(N)nc(SCc2csc(-c3ccc(Cl)cc3)n2)c(C#N)c1-c1cnc[nH]1` [Example 8]: the EC50 was determined as 1.2 nM at adenosine A1 receptor, 275 nM at adenosine A2a receptor and 715 nM on adenosine A2b receptor.

Source of the values: patent publication US8426602B2, “Heteroaryl-substituted dicyanopyridines and their use” (Bayer Intellectual Property GmbH, priority 2008, dated 2013).
